According to patent publication US8114590B2, “Diagnosis and treatment of chronic lymphocytic leukemia (CLL)” (The Regents of the University of California, priority 2005, dated 2012):

Tests used:
CLL-PBMC [1] = conditions: 72 h
Protocol: (§1) Apoptosis: PBMC (1 million cells/ml) from B-CLL patients or normal subjects were cultured in RPMI media supplemented with 10% FBS, L-glutamine and penicillin/streptomycin at 37° C. in 5% CO2 and treated with either vehicle or the PDE7 inhibitor BRL-50481 for 72 h. Apoptosis was assessed by flow cytometry as the percentage of cells stained with Annexin V and Propidium Iodide (PI) and analyzed by FACScan using CELLQuest software (Becton-Dickinson Immunocytometry System) (18).
(§2) PBMC from CLL patients (n=10) and normal subjects (n=6) were grown in the absence or presence of BRL-50481 (10 μM, 30 μM and 100 μM) for 72 h.

normal-PBMC = conditions: 10, 30 and 100 μM, 72 h, normal subjects n=6
Protocol: as §1, §2

CD8+ T-lymphocytes = conditions: 30 μM, literature (ref 25); cited from earlier work
monocytes or macrophages = conditions: 30 μM, literature (ref 25); cited from earlier work
CLL-PBMC [2] = conditions: literature (refs 8, 9, 13); cited from earlier work

| SMILES | dose dependence of apoptosis induction in CLL-PBMC (CLL-PBMC [1]; 10 μM, 30 μM and 100 μM) | increase in apoptosis in CLL-PBMC (CLL-PBMC [1]; ≧30 uM, CLL patients n=10, relative to vehicle control) | induction of apoptosis in PBMC from normal subjects (normal-PBMC) | inhibition of IL-5-promoted proliferation of CD8+ T-lymphocytes (CD8+ T-lymphocytes) | effect on TNFα release in monocytes or macrophages (monocytes or macrophages) | induction of apoptosis in CLL-PBMC (CLL-PBMC [2]) |
| --- | --- | --- | --- | --- | --- | --- |
| Cc1ccc([N+](=O)[O-])cc1S(=O)(=O)N(C)C [BRL-50481, 3-(N,N-dimethylsulfonamido)-4-methyl-nitrobenzene] | consistently and dose-dependently induced apoptosis | 20-40% | not in PBMC from normal subjects | failed to inhibit | little effect | – |
| CN(C(=O)CCCOc1ccc2[nH]c(=O)ccc2c1)C1CCCCC1 [cilostamide] | – | – | – | – | – | does not induce apoptosis |
| Cn1c(=O)c2[nH]cnc2n(C)c1=O [theophylline] | – | – | – | – | – | induces apoptosis |
